In patent publication US9957278B2, “Furopyridine compounds for the treatment of hepatitis C” (BRISTOL-MYERS SQUIBB COMPANY, priority 2014, dated 2018):
Where two headings read alike, the source gives them in different places.

System: genotype 1b (Con-1) HCV replicon
Experiment: HCV Replicon Luciferase Assay (genotype 1b)
Format: cell-based
Conditions: Hepatitis C virus, 72 h, genotype 1b replicon in Huh-7 cells, Renilla luciferase, 3 days incubation
Description: The cell lines used to evaluate compounds consist of a human hepatocyte derived cell line (Huh-7) that constitutively expresses a genotype 1b (Con-1) HCV replicon or a genotype 1b (Con-1) HCV replicon with an asparagine replacing the cysteine at amino acid 316, or a genotype 2a (JFH-1) replicon, containing a Renilla luciferase reporter gene. These cells were maintained in Dulbecco's modified Eagle medium (DMEM) containing 10% FBS, 100 U/mL penicillin/streptomycin and 1.0 mg/mL G418.
To evaluate compound efficacy, titrated compounds were transferred to sterile 384-well tissue culture treated plates, and the plates were seeded with HCV replicon cells (50 μL at a density of 2.4×10^3 cells/well) in DMEM containing 4% FBS (final DMSO concentration at 0.5%). After 3 days incubation at 37° C., cells were analyzed for Renilla Luciferase activity using the EnduRen substrate (Promega cat #E6485) according to the manufacturer's directions. Briefly, the EnduRen substrate was diluted in DMEM and then added to the plates to a final concentration of 7.5 μM. The plates were incubated for at least 1 h at 37° C. then read on a Viewlux Imager (PerkinElmer) using a luminescence program. The 50% effective concentration (EC50) was calculated using the four-parameter logistic formula noted above.
Compound EC50 data is expressed as A: <100 nM; B=100-1000 nM; C>1000 nM).

Compound	EC50 (read-out: EC50 1b (class))	EC50 (read-out: EC50 (uM) 1b)
CNC(=O)c1c(-c2ccc(F)cc2)oc2nc(Cl)c(-c3ccc(OC)c(C(=O)NCC(F)(F)C(F)(F)C(F)(F)F)c3)cc12 [Compound 10001]	0.1 to 1 µM	0.149 µM
C#CC(C)(C)NC(=O)c1cc(-c2cc3c(C(=O)NC)c(-c4ccc(F)cc4)oc3nc2Cl)ccc1OC [Compound 10002]	< 0.1 µM	0.0362 µM
CNC(=O)c1c(-c2ccc(F)cc2)oc2nc(Cl)c(-c3ccc(OC)c(C(=O)NC(CF)(CF)CF)c3)cc12 [Compound 10003]	0.1 to 1 µM	–
CNC(=O)c1c(-c2ccc(F)cc2)oc2nc(Cl)c(-c3cccc(C(=O)NC(CF)(CF)CF)c3)cc12 [Compound 11001]	0.1 to 1 µM	–
CNC(=O)c1c(-c2ccc(F)cc2)oc2nc(CCC(F)(F)F)c(-c3cccc(C(=O)NC(C)(C)C(F)(F)F)c3)cc12 [Compound 20001]	< 0.1 µM	0.0063 µM
CNC(=O)c1c(-c2ccc(F)cc2)oc2nc(CCC(F)(F)F)c(-c3cccc(C(=O)NC(CF)(CF)CF)c3)cc12 [Compound 20002]	< 0.1 µM	–
C#CC(C)(C)NC(=O)c1cccc(-c2cc3c(C(=O)NC)c(-c4ccc(F)cc4)oc3nc2CCC(F)(F)F)c1 [Compound 20003]	< 0.1 µM	0.004 µM
CNC(=O)c1c(-c2ccc(F)cc2)oc2nc(CCC(F)(F)F)c(-c3cccc(C(=O)NC(C)C(F)(F)F)c3)cc12 (centres unmarked) [Compound 20004]	< 0.1 µM	–
CCC(NC(=O)c1cccc(-c2cc3c(C(=O)NC)c(-c4ccc(F)cc4)oc3nc2CCC(F)(F)F)c1)C(F)(F)F (centres unmarked) [Compound 20005]	< 0.1 µM	–
CNC(=O)c1c(-c2ccc(F)cc2)oc2nc(CCC(F)(F)F)c(-c3cccc(C(=O)N[C@@H](CO)C4CC4)c3)cc12 [Compound 20006]	< 0.1 µM	–
CNC(=O)c1c(-c2ccc(F)cc2)oc2nc(CCC(F)(F)F)c(-c3cccc(C(=O)NC(C)(C)C4CC4)c3)cc12 [Compound 20007]	< 0.1 µM	–
CNC(=O)c1c(-c2ccc(F)cc2)oc2nc(CCC(F)(F)F)c(-c3cccc(C(=O)NC(C4CC4)C4CC4)c3)cc12 [Compound 20008]	< 0.1 µM	–
CC[C@@H](NC(=O)c1cccc(-c2cc3c(C(=O)NC)c(-c4ccc(F)cc4)oc3nc2CCC(F)(F)F)c1)C1CC1 [Compound 20009]	< 0.1 µM	0.01 µM
CC[C@H](NC(=O)c1cccc(-c2cc3c(C(=O)NC)c(-c4ccc(F)cc4)oc3nc2CCC(F)(F)F)c1)C1CC1 [Compound 20010]	< 0.1 µM	–
CNC(=O)c1c(-c2ccc(F)cc2)oc2nc(CCC(F)(F)F)c(-c3cccc(C(=O)N[C@@H](C)C4CC4)c3)cc12 [Compound 20011]	< 0.1 µM	–
CNC(=O)c1c(-c2ccc(F)cc2)oc2nc(CCC(F)(F)F)c(-c3cccc(C(=O)N[C@H](C)C4CC4)c3)cc12 [Compound 20012]	< 0.1 µM	–
CNC(=O)c1c(-c2ccc(F)cc2)oc2nc(CCC(F)(F)F)c(-c3cccc(C(=O)NC(C)C4CC4)c3)cc12 (centres unmarked) [Compound 20013]	< 0.1 µM	–
CNC(=O)c1c(-c2ccc(F)cc2)oc2nc(CCC(F)(F)F)c(-c3cccc(C(=O)N[C@@H](COC)C4CC4)c3)cc12 [Compound 20014]	< 0.1 µM	–
CNC(=O)c1c(-c2ccc(F)cc2)oc2nc(CCC(F)(F)F)c(-c3cccc(C(=O)N[C@H](COC)C4CC4)c3)cc12 [Compound 20015]	< 0.1 µM	0.0056 µM
CNC(=O)c1c(-c2ccc(F)cc2)oc2nc(CCC(F)(F)F)c(-c3cccc(C(=O)NC(COC)C4CC4)c3)cc12 (centres unmarked) [Compound 20016]	< 0.1 µM	0.0217 µM
CNC(=O)c1c(-c2ccc(F)cc2)oc2nc(CCC(F)(F)F)c(-c3cccc(C(=O)NC(c4ccccc4)C4CC4)c3)cc12 (centres unmarked) [Compound 20017]	< 0.1 µM	–

Compound	EC50 (read-out: EC50 1b (class))	EC50 (read-out: EC50 (uM) 1b)
CNC(=O)c1c(-c2ccc(F)cc2)oc2nc(CCC(F)(F)F)c(-c3cccc(C(=O)N4CC5(CCC5C(=O)OC)C4)c3)cc12 (centres unmarked) [Compound 20018]	0.1 to 1 µM	0.11 µM
CNC(=O)c1c(-c2ccc(F)cc2)oc2nc(CCC(F)(F)F)c(-c3cccc(C(=O)NCC(F)(F)F)c3)cc12 [Compound 20019]	< 0.1 µM	–
CNC(=O)c1c(-c2ccc(F)cc2)oc2nc(CCC(F)(F)F)c(-c3cccc(C(=O)NC4CCNC4=O)c3)cc12 (centres unmarked) [Compound 20020]	< 0.1 µM	0.0519 µM
CNC(=O)c1c(-c2ccc(F)cc2)oc2nc(CCC(F)(F)F)c(-c3cccc(C(=O)NCC(F)F)c3)cc12 [Compound 20021]	< 0.1 µM	–
CNC(=O)c1c(-c2ccc(F)cc2)oc2nc(CCC(F)(F)F)c(-c3cccc(C(=O)NCC(F)(F)C(F)(F)F)c3)cc12 [Compound 20022]	< 0.1 µM	0.0059 µM
CNC(=O)c1c(-c2ccc(F)cc2)oc2nc(CCC(F)(F)F)c(-c3cccc(C(=O)NC(C)(C)C(=O)OC)c3)cc12 [Compound 20023]	< 0.1 µM	–
CNC(=O)c1c(-c2ccc(F)cc2)oc2nc(CCC(F)(F)F)c(-c3cccc(C(=O)NC(C)(C)CF)c3)cc12 [Compound 20025]	< 0.1 µM	–
CNC(=O)c1c(-c2ccc(F)cc2)oc2nc(CCC(F)(F)F)c(-c3cccc(C(=O)NCC(C)(C)CO)c3)cc12 [Compound 20026]	< 0.1 µM	0.0043 µM
CNC(=O)c1c(-c2ccc(F)cc2)oc2nc(CCC(F)(F)F)c(-c3cccc(C(=O)NC(C)(CO)CO)c3)cc12 [Compound 20027]	< 0.1 µM	–
CCOC(=O)C(C)(C)NC(=O)c1cccc(-c2cc3c(C(=O)NC)c(-c4ccc(F)cc4)oc3nc2CCC(F)(F)F)c1 [Compound 20029]	< 0.1 µM	–
CNC(=O)c1c(-c2ccc(F)cc2)oc2nc(CCC(F)(F)F)c(-c3cccc(C(=O)NCC(C)(C)C)c3)cc12 [Compound 20030]	< 0.1 µM	–
CNC(=O)c1c(-c2ccc(F)cc2)oc2nc(CCC(F)(F)F)c(-c3cccc(C(=O)NC4CCOCC4)c3)cc12 [Compound 20031]	< 0.1 µM	0.0136 µM
CNC(=O)c1c(-c2ccc(F)cc2)oc2nc(CCC(F)(F)F)c(-c3cccc(C(=O)NCC4(COC)CC4)c3)cc12 [Compound 20032]	< 0.1 µM	–
CNC(=O)c1c(-c2ccc(F)cc2)oc2nc(CCC(F)(F)F)c(-c3cccc(C(=O)NCC(C)(C)COC)c3)cc12 [Compound 20033]	< 0.1 µM	–
CNC(=O)c1c(-c2ccc(F)cc2)oc2nc(CCC(F)(F)F)c(-c3cccc(C(=O)NC4CCOC4)c3)cc12 (centres unmarked) [Compound 20034]	< 0.1 µM	0.0118 µM
CNC(=O)c1c(-c2ccc(F)cc2)oc2nc(CCC(F)(F)F)c(-c3cccc(C(=O)NCC(C)(F)F)c3)cc12 [Compound 20035]	< 0.1 µM	–
CNC(=O)c1c(-c2ccc(F)cc2)oc2nc(CCC(F)(F)F)c(-c3cccc(C(=O)NC(C)(C)CCO)c3)cc12 [Compound 20036]	< 0.1 µM	–
CNC(=O)c1c(-c2ccc(F)cc2)oc2nc(CCC(F)(F)F)c(-c3cccc(C(=O)NCC(F)(F)C(F)(F)C(F)(F)F)c3)cc12 [Compound 20037]	< 0.1 µM	0.0106 µM
C#CC(C)(C)NC(=O)c1cc(-c2cc3c(C(=O)NC)c(-c4ccc(F)cc4)oc3nc2CCC(F)(F)F)ccc1OC [Compound 21001]	< 0.1 µM	–
CNC(=O)c1c(-c2ccc(F)cc2)oc2nc(CCC(F)(F)F)c(-c3ccc(OC)c(C(=O)NCC(F)(F)C(F)(F)C(F)(F)F)c3)cc12 [Compound 21002]	< 0.1 µM	–
CNC(=O)c1c(-c2ccc(F)cc2)oc2nc(CCC(F)(F)F)c(-c3ccc(OC)c(C(=O)NC(CF)(CF)CF)c3)cc12 [Compound 21003]	< 0.1 µM	–
